Measured values reported in patent publication US12037346B2, “Amino-substituted heteroaryls for treating cancers with EGFR mutations” (Nuvalent, Inc., priority 2021, dated 2024).

What was measured:
Type in all cases: cell-based
[1] = molecular target: T1, HER2-A775_G776insV-G776C (NCI-H1781 cells) (Homo sapiens, UniProt P04626, G776C/INS775V); assay: Cellular phosphorylation assay, pHER2 (phospho-ErbB2 Tyr1221/1222 AlphaLISA) in NCI-H1781; conditions: compound incubated for 5 hours
T1 construct: NCI-H1781 is a HER2 exon20 insertion cell line bearing HER2-A775_G776insV-G776C; endogenous in cells; host or cells: NCI-H1781
Description: (§1) Besides Ba/F3s, two commercially available cell lines were also used. NCI-H1781 is a HER2 exon20 insertion cell line bearing HER2-A775_G776insV-G776C. A431 bears amplification of the wild-type EGFR gene.
Ba/F3 cells were plated at 50,000 cells/well (40 μL), or NCI-H1781 cells or A431 cells were plated at 12,500 cells/well (40 μL), in a 384-well plate for 1 day. Test compounds (40 nL) were then added in a 3-fold dilution series using the TECAN EV0200 liquid handler and incubated for 5 hours. Only for pEGFR analysis in A431, the cells were briefly stimulated with EGF (30 ng/mL) for 15 minutes. Media were removed using Apricot Designs. Phosphoproteins were analyzed using the phospho-EGFR Tyr1068 AlphaLISA kit (“pEGFR”; PerkinElmer #ALSU-PEGFR-B10K;) phospho-ERK Thr202/Tyr204 AlphaLISA kit (“pERK”; PerkinElmer #ALSU-PERK-A10K) or the phospho-ErbB2 Tyr1221/1222 AlphaLISA kit (“pHER2”; PerkinElmer #ALSU-PEB2-A10K;) according to the manufacturer's instructions. Briefly, cells were lysed with lysis buffer (10 μL) containing protease-inhibitor and phosphatase-inhibitor cocktails. The lysates were transferred into a new optical plate, incubated with the acceptor mix (5 μL) for 1.5-2 hours at room temperature in darkness, and then mixed with the donor mix (5 μL) overnight in darkness. Fluorescence was measured on a plate reader using the appropriate AlphaLISA settings. Half-maximal inhibitory concentration (IC50) was calculated from percent inhibition and inhibitor concentration using four-parameter logistic regression.
HER2 is phosphorylated when activated. Therefore, phospho-HER2 indicates HER2 activity in the cells.

[2] = molecular target: T2, wild-type EGFR (A431 cells) (Homo sapiens, UniProt P00533); assay: Cellular phosphorylation assay, pEGFR (phospho-EGFR Tyr1068 AlphaLISA) in A431; conditions: compound incubated for 5 hours, EGF (30 ng/mL) for 15 minutes
T2 construct: A431 bears amplification of the wild-type EGFR gene; endogenous in cells; host or cells: A431
Description: as §1
(§2) Ba/F3 cells were plated at 50,000 cells/well (40 μL), or NCI-H1781 cells or A431 cells were plated at 12,500 cells/well (40 μL), in a 384-well plate for 1 day. Test compounds (40 nL) were then added in a 3-fold dilution series using the TECAN EV0200 liquid handler and incubated for 5 hours. Only for pEGFR analysis in A431, the cells were briefly stimulated with EGF (30 ng/mL) for 15 minutes. Media were removed using Apricot Designs. Phosphoproteins were analyzed using the phospho-EGFR Tyr1068 AlphaLISA kit (“pEGFR”; PerkinElmer #ALSU-PEGFR-B10K;) phospho-ERK Thr202/Tyr204 AlphaLISA kit (“pERK”; PerkinElmer #ALSU-PERK-A10K) or the phospho-ErbB2 Tyr1221/1222 AlphaLISA kit (“pHER2”; PerkinElmer #ALSU-PEB2-A10K;) according to the manufacturer's instructions. Briefly, cells were lysed with lysis buffer (10 μL) containing protease-inhibitor and phosphatase-inhibitor cocktails. The lysates were transferred into a new optical plate, incubated with the acceptor mix (5 μL) for 1.5-2 hours at room temperature in darkness, and then mixed with the donor mix (5 μL) overnight in darkness. Fluorescence was measured on a plate reader using the appropriate AlphaLISA settings. Half-maximal inhibitory concentration (IC50) was calculated from percent inhibition and inhibitor concentration using four-parameter logistic regression. […]

[3] = system: NCI-H1781 cells (HER2-A775_G776insV-G776C); assay: Cell proliferation assay (CellTiter-Glo), NCI-H1781; conditions: first inflexion of biphasic curve
Description: as §1
(§3) Ba/F3 cells were plated at 1,000 cells/well (40 μL), or NCI-H1781 or A431 cells were plated at 2,000 cells/well (40 μL), in a 384-well plate for 1 day. Test compounds (40 nL) were then added in a 3-fold dilution series using the TECAN EV0200 liquid handler and incubated for 48 hours (“2 days”), 72 hours (“3 days”), or 48 hours followed by renewal of compound solutions and further incubation for 72 hours (“2 days/3 days”). The 72-hour assay was necessary for NCI-H1781 cells, which are slow-growing, and the resupply of fresh compounds on day 3 obviated the potential confounding effects arising from compound degradation in cell media over 72 hours. Plates were equilibrated at room temperature for 15 minutes followed by addition of 40 μL CellTiter-Glo reagent (Promega). Luminescence was measured on a plate reader. Half-maximal inhibitory concentration (IC50) was calculated from percent inhibition and inhibitor concentration using four-parameter logistic regression. […] In these cases, the regression curve was drawn only for the first inflexion to accurately measure on-target growth inhibitory effect.
(§4) Ba/F3, NCI-H1781, and A431 proliferation is driven by the oncogenes in the same way that cancer cell proliferation in humans is driven by the expression of equivalent oncogenes.

[4] = molecular target: Ba/F3 HER2-YVMA cells (HER2-A775_G776insYVMA) (Homo sapiens, UniProt P04626, DUP772-775, cells depend on it); assay: Cell proliferation assay (CellTiter-Glo), Ba/F3 HER2-YVMA; conditions: read-out: Ba/F3 HER2-YVMA cell proliferation IC50
Description: The gene encoding HER2-A775_G776insYVMA (“HER2-YVMA”) was synthesized at GeneRay, cloned into the retroviral construct pMSCV-puro (Biovector), and packaged into retroviral particles. The virus was used to infect Ba/F3 cells (RIKEN) at multiplicity of infection=1 or 10 for 1 day. Infected cells were rescued in media (RPMI-1640 with 10% fetal bovine serum and 1% streptomycin and penicillin) supplemented with mouse IL-3 (10 ng/mL) for 2 days, and stable cell lines were selected by IL-3 withdrawal and puromycin (0.8 μg/mL) for 7 days. Monoclones were selected by single-cell dilution in IL-3-free medium containing puromycin ([…]). Transformation of desired genes was confirmed by Sanger sequencing and western blot using the following antibody: HER2 (CST #2242).
as §3, §4

[5] = system: A431 cells (amplification of the wild-type EGFR gene), phospho-ERK Thr202/Tyr204; assay: Cellular phosphorylation assay, pERK (phospho-ERK Thr202/Tyr204 AlphaLISA) in A431; conditions: Homo sapiens, A-431, compound incubated for 5 hours
Description: as §1, §2

T1 sequence (P04626 with tags, fused parts or gaps INS775V/G776C): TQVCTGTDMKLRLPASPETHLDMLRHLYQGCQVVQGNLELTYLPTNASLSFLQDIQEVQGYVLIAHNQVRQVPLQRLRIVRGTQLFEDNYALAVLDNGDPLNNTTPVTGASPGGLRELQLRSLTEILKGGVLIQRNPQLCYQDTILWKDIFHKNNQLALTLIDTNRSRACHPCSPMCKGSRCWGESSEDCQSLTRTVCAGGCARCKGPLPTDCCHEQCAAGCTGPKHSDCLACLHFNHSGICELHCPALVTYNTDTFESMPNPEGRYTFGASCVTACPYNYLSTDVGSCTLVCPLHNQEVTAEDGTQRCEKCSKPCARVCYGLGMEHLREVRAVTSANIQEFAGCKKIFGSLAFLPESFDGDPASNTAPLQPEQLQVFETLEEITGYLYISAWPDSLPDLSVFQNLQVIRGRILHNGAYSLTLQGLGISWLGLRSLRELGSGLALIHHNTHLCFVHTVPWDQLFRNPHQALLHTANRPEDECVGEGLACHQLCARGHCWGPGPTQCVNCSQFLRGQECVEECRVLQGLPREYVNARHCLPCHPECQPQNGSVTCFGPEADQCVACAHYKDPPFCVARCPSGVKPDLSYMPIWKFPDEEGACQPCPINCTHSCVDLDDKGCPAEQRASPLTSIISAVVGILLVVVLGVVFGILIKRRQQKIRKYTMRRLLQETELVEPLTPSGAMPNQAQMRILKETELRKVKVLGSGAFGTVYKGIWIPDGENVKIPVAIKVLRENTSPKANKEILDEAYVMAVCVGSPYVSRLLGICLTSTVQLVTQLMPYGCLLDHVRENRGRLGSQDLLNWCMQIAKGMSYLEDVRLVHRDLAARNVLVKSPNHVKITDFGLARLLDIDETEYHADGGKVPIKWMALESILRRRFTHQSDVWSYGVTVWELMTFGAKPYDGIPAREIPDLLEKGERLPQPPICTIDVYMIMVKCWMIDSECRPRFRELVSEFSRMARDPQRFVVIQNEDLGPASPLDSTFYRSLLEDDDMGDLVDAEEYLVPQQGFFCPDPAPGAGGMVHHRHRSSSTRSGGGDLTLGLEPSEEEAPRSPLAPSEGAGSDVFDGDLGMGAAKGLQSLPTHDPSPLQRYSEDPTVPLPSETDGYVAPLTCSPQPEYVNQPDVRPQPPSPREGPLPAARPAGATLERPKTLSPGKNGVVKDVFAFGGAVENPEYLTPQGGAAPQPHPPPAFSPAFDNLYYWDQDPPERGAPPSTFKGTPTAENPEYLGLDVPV
Ba/F3 HER2-YVMA cells (HER2-A775_G776insYVMA), sequence (P04626 with tags, fused parts or gaps DUP772-775): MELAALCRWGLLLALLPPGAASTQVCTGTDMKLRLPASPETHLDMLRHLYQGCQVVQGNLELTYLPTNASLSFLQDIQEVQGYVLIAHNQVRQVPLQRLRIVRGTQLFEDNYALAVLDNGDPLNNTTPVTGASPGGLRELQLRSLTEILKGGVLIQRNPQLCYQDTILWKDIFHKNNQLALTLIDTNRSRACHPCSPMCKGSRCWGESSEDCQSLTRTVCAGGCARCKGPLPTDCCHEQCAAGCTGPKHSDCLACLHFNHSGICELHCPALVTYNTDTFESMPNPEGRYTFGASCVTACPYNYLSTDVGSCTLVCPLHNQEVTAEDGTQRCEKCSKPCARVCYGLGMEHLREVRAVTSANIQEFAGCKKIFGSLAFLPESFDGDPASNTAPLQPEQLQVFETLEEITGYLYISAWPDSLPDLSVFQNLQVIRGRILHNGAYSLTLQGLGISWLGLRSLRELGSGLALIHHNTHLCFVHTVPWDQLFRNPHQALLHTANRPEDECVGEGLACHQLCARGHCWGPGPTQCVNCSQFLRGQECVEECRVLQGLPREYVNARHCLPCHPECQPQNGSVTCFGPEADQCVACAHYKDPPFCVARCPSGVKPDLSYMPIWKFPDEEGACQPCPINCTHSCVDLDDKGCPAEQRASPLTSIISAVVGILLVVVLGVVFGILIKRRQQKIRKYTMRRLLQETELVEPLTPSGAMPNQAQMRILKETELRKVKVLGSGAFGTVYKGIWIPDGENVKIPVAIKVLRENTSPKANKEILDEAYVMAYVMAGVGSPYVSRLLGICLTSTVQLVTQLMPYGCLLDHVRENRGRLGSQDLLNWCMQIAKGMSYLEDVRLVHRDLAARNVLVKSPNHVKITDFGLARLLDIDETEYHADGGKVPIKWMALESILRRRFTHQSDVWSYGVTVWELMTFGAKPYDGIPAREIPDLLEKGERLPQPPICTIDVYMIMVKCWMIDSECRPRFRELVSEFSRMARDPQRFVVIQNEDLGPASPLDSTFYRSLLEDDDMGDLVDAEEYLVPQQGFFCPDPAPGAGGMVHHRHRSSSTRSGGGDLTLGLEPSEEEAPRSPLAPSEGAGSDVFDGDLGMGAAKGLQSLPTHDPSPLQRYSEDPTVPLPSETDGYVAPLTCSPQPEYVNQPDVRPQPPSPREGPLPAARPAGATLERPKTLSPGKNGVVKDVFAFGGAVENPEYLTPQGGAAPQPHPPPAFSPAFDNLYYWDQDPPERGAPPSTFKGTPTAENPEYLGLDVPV
T2 sequence (P00533 25-1210): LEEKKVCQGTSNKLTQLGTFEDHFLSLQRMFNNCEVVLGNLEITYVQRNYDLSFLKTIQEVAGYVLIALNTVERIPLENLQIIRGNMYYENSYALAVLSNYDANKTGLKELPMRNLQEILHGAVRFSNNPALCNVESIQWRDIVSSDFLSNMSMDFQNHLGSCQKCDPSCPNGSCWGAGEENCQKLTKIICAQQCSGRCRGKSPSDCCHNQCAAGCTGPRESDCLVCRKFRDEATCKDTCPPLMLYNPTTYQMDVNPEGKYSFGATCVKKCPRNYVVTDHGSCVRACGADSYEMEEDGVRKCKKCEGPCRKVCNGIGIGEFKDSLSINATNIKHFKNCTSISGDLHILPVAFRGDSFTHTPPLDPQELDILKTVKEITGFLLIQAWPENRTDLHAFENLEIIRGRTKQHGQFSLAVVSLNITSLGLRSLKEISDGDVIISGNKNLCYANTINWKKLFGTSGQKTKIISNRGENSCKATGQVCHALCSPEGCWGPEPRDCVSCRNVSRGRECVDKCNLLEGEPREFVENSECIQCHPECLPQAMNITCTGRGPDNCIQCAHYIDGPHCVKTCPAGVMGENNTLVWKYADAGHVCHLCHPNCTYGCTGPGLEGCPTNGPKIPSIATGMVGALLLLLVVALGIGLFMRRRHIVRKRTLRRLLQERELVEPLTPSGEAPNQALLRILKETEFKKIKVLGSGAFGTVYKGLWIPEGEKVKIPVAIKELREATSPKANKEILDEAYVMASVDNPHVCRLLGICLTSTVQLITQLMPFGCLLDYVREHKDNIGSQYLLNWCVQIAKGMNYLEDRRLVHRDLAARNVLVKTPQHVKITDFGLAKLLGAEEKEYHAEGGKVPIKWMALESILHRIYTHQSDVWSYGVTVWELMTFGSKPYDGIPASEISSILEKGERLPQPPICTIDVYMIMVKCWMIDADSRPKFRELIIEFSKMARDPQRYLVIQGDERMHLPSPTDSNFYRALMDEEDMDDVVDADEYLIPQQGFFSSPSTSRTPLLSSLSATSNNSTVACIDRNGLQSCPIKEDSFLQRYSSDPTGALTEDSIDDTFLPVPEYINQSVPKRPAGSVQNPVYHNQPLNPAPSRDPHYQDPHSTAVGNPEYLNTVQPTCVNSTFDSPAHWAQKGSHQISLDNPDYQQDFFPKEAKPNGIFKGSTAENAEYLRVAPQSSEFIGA

IC50 [1] [nM] | IC50 [2] [nM] | IC50 [3] [nM] | GI50 [4] [nM] | IC50 [5] [nM] | Structure (SMILES)
< 100 | 100 to 500 | < 100 | < 100 | 100 to 500 | C=CC(=O)N1CCC=C(c2ccc3ncnc(Nc4ccc(Oc5ccn6ncnc6c5)c(C)c4)c3n2)CC1 [Example 1, 1-(4-[4-[(3-methyl-4-[[1,2,4]triazolo[1,5-a]pyridin-7-yloxy]phenyl)amino]pyrido[3,2-d]pyrimidin-6-yl]-2,3,6,7-tetrahydroazepin-1-yl)prop-2-en-1-one]
< 100 | 500 to 1000 | < 100 | < 100 | 500 to 1000 | CC#CC(=O)N1CC=C(c2ccc3ncnc(Nc4ccc(Oc5ccn6ncnc6c5)c(C)c4)c3n2)CC1 [Example 2, 1-(4-(4-((4-([1,2,4]triazolo[1,5-a]pyridin-7-yloxy)-3-methylphenyl)amino)pyrido[3,2-d]pyrimidin-6-yl)-3,6-dihydropyridin-1(2H)-yl)but-2-yn-1-one]
< 100 | ≥ 1000 | 100 to 500 | < 100 | ≥ 1000 | C=CC(=O)N1CC=C(c2ccc3ncnc(Nc4ccc(Oc5ccn6ncnc6c5)c(C)c4F)c3n2)CC1 [Example 5]
< 100 | 100 to 500 | < 100 | < 100 | 500 to 1000 | C=CC(=O)N1CCN(c2ccc3ncnc(Nc4ccc(Oc5ccn6ncnc6c5)c(C)c4)c3n2)CC1 [Example 9]
< 100 | 500 to 1000 | < 100 | < 100 | 500 to 1000 | C=CC(=O)N1CC=C(c2ccc3ncnc(Nc4ccc(Oc5ccn6ncnc6c5)c(C)c4)c3n2)CC1 [Example 12]
< 100 | 100 to 500 | < 100 | < 100 | ≥ 1000 | Cc1cc(Nc2ncnc3ccc(C4=CCN(C(=O)/C=C/CN(C)C)CC4)nc23)ccc1Oc1ccn2ncnc2c1 [Example 13]
< 100 | ≥ 1000 |  | 100 to 500 | ≥ 1000 | C=CC(=O)N1CCCN(c2ccc3ncnc(Nc4ccc(Oc5ccn6ncnc6c5)c(C)c4)c3n2)CC1 [Example 14]
< 100 | 500 to 1000 | < 100 | < 100 | 500 to 1000 | C=CC(=O)N1CC=C(c2ncc3ncnc(Nc4ccc(Oc5ccn6ncnc6c5)c(C)c4)c3n2)CC1 [Example 18]
< 100 | ≥ 1000 |  | 100 to 500 |  | C=CC(=O)N1CC=C(c2ccc3ncnc(Nc4ccc(Oc5ccn6ncnc6c5)c(C)c4)c3c2OC)CC1 [Example 19]
< 100 | ≥ 1000 |  | 500 to 1000 |  | C=CC(=O)N1CC2(C1)CN(c1ccc3ncnc(Nc4ccc(Oc5ccn6ncnc6c5)c(C)c4)c3n1)C2 [Example 23]
< 100 | ≥ 1000 | < 100 | < 100 | ≥ 1000 | C=CC(=O)N1CCN(c2ncc3ncnc(Nc4ccc(Oc5ccn6ncnc6c5)c(C)c4F)c3n2)C[C@@H]1C [Example 49]
< 100 | ≥ 1000 | 100 to 500 |  |  | C=CC(=O)N1CCN(c2ncc3ncnc(Nc4cc(C)c(Oc5ccn6ncnc6c5)cc4F)c3n2)C[C@H]1C [Example 50]
< 100 | ≥ 1000 |  | < 100 | ≥ 1000 | C=CC(=O)N1CCN(c2ncc3ncnc(Nc4cc(C)c(Oc5cc(C)n6ncnc6c5)cc4F)c3n2)C[C@H]1C [Example 51]
< 100 | ≥ 1000 | < 100 | < 100 | ≥ 1000 | C=CC(=O)N1CCN(c2ncc3ncnc(Nc4ccc(Oc5ccn6ncnc6c5)c(C)c4F)c3c2F)C[C@H]1C [Example 52]
< 100 | ≥ 1000 | < 100 | < 100 | ≥ 1000 | C=CC(=O)N1CCN(c2ccc3ncnc(Nc4ccc(Oc5ccn6ncnc6c5)c(C)c4F)c3c2F)C[C@H]1C [Example 53]
< 100 | 500 to 1000 | < 100 | < 100 | 100 to 500 | C=CC(=O)N1CCC(c2ncc3ncnc(Nc4ccc(Oc5ccn6ncnc6c5)c(C)c4F)c3n2)=C[C@@H]1C [Example 54]
< 100 | ≥ 1000 |  | < 100 | 100 to 500 | C=CC(=O)N1CCC(c2ncc3ncnc(Nc4ccc(Oc5ccn6ncnc6c5)c(C)c4F)c3n2)=C[C@H]1C [Example 55]
< 100 | 500 to 1000 |  | < 100 |  | C=CC(=O)N1CCC=C(c2ncc3ncnc(Nc4ccc(Oc5ccn6ncnc6c5)c(C)c4F)c3n2)CC1 [Example 56]
< 100 | ≥ 1000 |  | 500 to 1000 |  | C=CC(=O)N1CC=C(c2ncc3ncnc(Nc4cc(C)c(Oc5ccn6ncnc6c5)cc4F)c3n2)C[C@@H]1C [Example 59]
< 100 | 500 to 1000 |  | < 100 | ≥ 1000 | C=CC(=O)N1CCC(c2ncc3ncnc(Nc4ccc(Oc5ccn6ncnc6c5)c(C(F)F)c4F)c3n2)=C[C@@H]1C [Example 60]
< 100 | ≥ 1000 |  | < 100 | ≥ 1000 | C=CC(=O)N1CCC(c2ncc3ncnc(Nc4ccc(Oc5ccn6ncnc6c5)c(C(F)(F)F)c4F)c3n2)=C[C@@H]1C [Example 62]
100 to 500 | ≥ 1000 |  | 500 to 1000 | ≥ 1000 | C=CC(=O)N1CCN(c2ncc3ncnc(Nc4ncc(Oc5ccn6ncnc6c5)c(C)c4F)c3n2)C[C@H]1C [Example 63]
< 100 | ≥ 1000 |  | 100 to 500 | ≥ 1000 | C=CC(=O)N1CCN(c2ccc3ncnc(Nc4ncc(Oc5ccn6ncnc6c5)c(C)c4F)c3c2F)C[C@H]1C [Example 64]

Structure (SMILES) | IC50 [1] [nM] | IC50 [2] [nM] | IC50 [3] [nM] | GI50 [4] [nM] | IC50 [5] [nM]
C=CC(=O)N1CC=C(c2ccc3ncnc(Nc4ccc(Oc5ccn6ncnc6c5)c(C)c4)c3n2)C1 [Example 21] | < 100 | ≥ 1000 | 100 to 500 | 100 to 500 | ≥ 1000
